According to patent US6780994B2, “Phthalimido arylpiperazines useful in the treatment of benign prostatic hyperplasia” (Ortho-McNeil Pharmaceutical, Inc., priority 1998, dated 2004):

Tests used:
[1] = biological target: T1, α1b-AR (Homo sapiens, UniProt P35368); assay: radioligand ([125I]-HEAT) receptor binding assay, COS cell membranes expressing cloned receptor; conditions: [125I]-HEAT 50 pM, 1 hour room temperature
T1 construct: expressed in transfected cells; host or cells: COS cells, pcDNA3 vector, transient DEAE-dextran transfection
T1 sequence (P35368 1-520): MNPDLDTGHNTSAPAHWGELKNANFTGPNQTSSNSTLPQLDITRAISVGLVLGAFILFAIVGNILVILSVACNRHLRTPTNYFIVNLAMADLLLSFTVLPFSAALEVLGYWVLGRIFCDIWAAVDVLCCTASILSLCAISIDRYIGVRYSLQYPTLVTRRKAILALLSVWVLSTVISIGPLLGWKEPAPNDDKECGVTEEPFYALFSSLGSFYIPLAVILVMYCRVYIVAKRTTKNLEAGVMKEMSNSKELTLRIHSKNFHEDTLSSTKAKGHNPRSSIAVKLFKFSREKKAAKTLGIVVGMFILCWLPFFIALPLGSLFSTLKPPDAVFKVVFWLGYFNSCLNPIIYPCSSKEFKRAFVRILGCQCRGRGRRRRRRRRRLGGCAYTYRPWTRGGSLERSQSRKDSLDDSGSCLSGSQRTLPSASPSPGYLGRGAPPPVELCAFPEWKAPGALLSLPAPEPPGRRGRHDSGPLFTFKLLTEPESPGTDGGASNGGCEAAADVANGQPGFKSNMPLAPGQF
Description: (§1) The first assay tested the ability of compounds of Formula I to bind to membrane bound receptors α1a-AR, α1b-AR and α1d-AR.
(§2) The DNA sequences of the three cloned human α1-AR subtypes have been published. […] We used published DNA sequence information to design primers for use in RT-PCR amplification of each subtype to obtain cloned cDNAs. Human poly A+ RNA was obtained from commercially available sources and included hippocampus and prostate samples, sources which have been cited in the literature. For the primary screen a radioligand binding assay was used which employed membrane preparations from cells expressing the individual cloned receptor cDNAs. Radiolabeled ligands with binding activity on all three subtypes (non-selective) are commercially available ([125I]-HEAT, [3H]-prazosin). Each α1 receptor subtype was cloned from poly A+ RNA by the standard method of reverse transcription-polymerase chain reaction (RT-PCR). The following sources of polyA+ RNA were used for the cloning of the α1 receptor subtypes: α1a-AR, human hippocampus and prostate, α1b-AR, human hippocampus, α1d-AR, human hippocampus. The resulting cDNAs were cloned into the pcDNA3 mammalian expression vector (Invitrogen Corp., San Diego Calif.). Each DNA was sequenced for verification and to detect any possible mutations introduced during the amplification process. Any deviation in sequence from the published consensus for each receptor subtype was corrected by site-directed mutagenesis.
(§3) The three α1-AR subtypes (a, b, d) were transfected into COS cells using a standard DEAE-dextran procedure with a chloroquine shock. In this procedure, each tissue culture dish (100 mm) was inoculated with 3.5×10^6 cells and transfected with 10 μg of DNA. Approximately 72 hours post-transfection, the cells were harvested and COS membranes were prepared. Transfected COS cells from 25 plates (100 mm) were scraped and suspended in 15 mL of TE buffer (50 mM Tris-HCl, 5 mM EDTA, pH 7.4). The suspension was disrupted with a homogenizer. It was then centrifuged at 1000× g for 10 minutes at 4° C. The supernatant was centrifuged at 34,500× g for 20 minutes at 4° C. The pellet was resuspended in 5 mL TNE buffer (50 mM Tris-HCl, 5 mM EDTA, 150 mM NaCl, pH 7.4). The resulting membrane preparation was aliquoted and stored at −70° C. The protein concentration was determined following membrane solubilization with TritonX-100.
(§4) The ability of each compound to bind to each of the α1-AR subtypes was assessed in a receptor binding assay. [125I]-HEAT, a non-selective α1-AR ligand, was used as the radiolabeled ligand. Each well of a 96-well plate received: 140 μL TNE, […] [125I]-HEAT diluted in TNE (50,000 cpm; final concentration 50 pM), 10 μL test compound diluted in DMSO (final concentration 1 pM-10 μM), […] COS cell membrane preparation expressing one of the three α1-AR subtypes (0.05-0.2 mg membrane protein). The plate was incubated for 1 hour at room temperature and the reaction mixtures were filtered through a Packard GF/C Unifilter filter plate. The filter plate was dried for 1 hour in a vacuum oven. Scintillation fluid ([…]) was added to each well, and the filter plate was counted in a Packard Topcount scintillation counter. Data was analyzed using GraphPad Prism software.
(§5) Tables A through D list the IC50 values expressed in nanomolar concentration for select compounds of the invention in all receptor subtypes.

[2] = biological target: T2, α1d-AR (Homo sapiens, UniProt P25100); assay: as above; conditions: [125I]-HEAT 50 pM, 1 hour room temperature
T2 construct: expressed in transfected cells; host or cells: COS cells, pcDNA3 vector, transient DEAE-dextran transfection
T2 sequence (P25100 1-572): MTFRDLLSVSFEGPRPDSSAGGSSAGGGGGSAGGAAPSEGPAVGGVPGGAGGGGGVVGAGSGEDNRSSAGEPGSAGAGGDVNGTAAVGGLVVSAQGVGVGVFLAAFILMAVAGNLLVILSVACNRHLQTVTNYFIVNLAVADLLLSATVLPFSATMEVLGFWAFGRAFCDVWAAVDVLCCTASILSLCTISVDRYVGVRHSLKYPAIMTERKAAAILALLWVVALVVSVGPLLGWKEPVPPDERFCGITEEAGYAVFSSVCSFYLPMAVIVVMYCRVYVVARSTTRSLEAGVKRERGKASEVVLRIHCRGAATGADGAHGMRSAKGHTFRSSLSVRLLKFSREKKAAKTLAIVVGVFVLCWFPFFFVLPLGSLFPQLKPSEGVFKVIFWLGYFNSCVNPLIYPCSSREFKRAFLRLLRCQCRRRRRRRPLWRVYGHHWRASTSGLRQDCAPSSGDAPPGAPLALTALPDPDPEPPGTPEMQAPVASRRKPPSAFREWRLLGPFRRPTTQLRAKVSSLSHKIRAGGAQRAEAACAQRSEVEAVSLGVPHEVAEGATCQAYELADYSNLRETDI
Description: as §1, §2, §3, §4, §5

IC50 [1] [µM] | IC50 [2] [µM] | SMILES
0.255 | 0.013 | CC(C)Oc1ccccc1N1CCN(CCCNC(=O)c2ccc3c(c2)C(=O)N(c2ccc(O)cc2)C3=O)CC1 [Compound 47]
> 2 | 0.037 | Cc1ccc(N2C(=O)c3ccc(C(=O)NCCCN4CCN(c5ccccc5OC(C)C)CC4)cc3C2=O)cc1 [Compound 46]
0.465 | 0.015 | CC(C)Oc1ccccc1N1CCN(CCCNC(=O)c2ccc3c(c2)C(=O)N(c2ccc(N(C)C)cc2)C3=O)CC1 [Compound 44]
> 2 | 0.065 | CC(C)Oc1ccccc1N1CCN(CC(O)CNC(=O)c2ccc3c(c2)C(=O)N(c2ccccc2)C3=O)CC1 (centres unmarked) [Compound 51]
> 2 | 0.19 | CC(C)Oc1ccccc1N1CCN(C[C@@H](O)CNC(=O)c2ccc3c(c2)C(=O)N(c2cccc(F)c2)C3=O)CC1 [Compound 9]
> 2 | 0.044 | CC(C)Oc1ccccc1N1CCN(CC(O)CNC(=O)c2ccc3c(c2)C(=O)N(c2ccc(N(C)C)cc2)C3=O)CC1 (centres unmarked) [Compound 28]
> 2 | 0.089 | CC(C)Oc1ccccc1N1CCN(CC(O)CNC(=O)c2ccc3c(c2)C(=O)N(c2cccc(C(F)(F)F)c2)C3=O)CC1 (centres unmarked) [Compound 57]
> 2 | 0.052 | CC(C)Oc1ccccc1N1CCN(C[C@@H](O)CNC(=O)c2ccc3c(c2)C(=O)N(c2ccc(N(C)C)cc2)C3=O)CC1 [Compound 21, (S)-2-[4-(dimethylamino)phenyl]-2,3-dihydro-N-[2-hydroxy-3-[4-[2-(1-methylethoxy)phenyl]-1-piperazinyl]propyl]-1,3-dioxo-1H-isoindole-5-carboxamide]
> 2 | 0.06 | CC(=O)c1ccc(N2C(=O)c3ccc(C(=O)NCC(O)CN4CCN(c5ccccc5OC(C)C)CC4)cc3C2=O)cc1 (centres unmarked) [Compound 48]
> 2 | 0.031 | CC(C)Oc1ccccc1N1CCN(CC(O)CNC(=O)c2ccc3c(c2)C(=O)N(c2cccnc2)C3=O)CC1 (centres unmarked) [Compound 11]
> 2 | 0.111 | CC(C)Oc1ccccc1N1CCN(CC(O)CNC(=O)c2ccc3c(c2)C(=O)N(c2ccc(F)cc2)C3=O)CC1 (centres unmarked) [Compound 50]
> 2 | 0.038 | CC(C)Oc1ccccc1N1CCN(CC(O)CNC(=O)c2ccc3c(c2)C(=O)N(c2ccc([N+](=O)[O-])cc2)C3=O)CC1 (centres unmarked) [Compound 30]
> 2 | 0.028 | CC(C)Oc1ccccc1N1CCN(CC(O)CNC(=O)c2ccc3c(c2)C(=O)N(c2ccc(O)cc2)C3=O)CC1 (centres unmarked) [Compound 58]
> 2 | 0.175 | COc1ccc(N2C(=O)c3ccc(C(=O)NCC(O)CN4CCN(c5ccccc5OC(C)C)CC4)cc3C2=O)cc1OC (centres unmarked) [Compound 38]
0.482 | 0.022 | CC(C)Oc1ccccc1N1CCN(CCCNC(=O)c2ccc3c(c2)C(=O)N(c2cccc(F)c2)C3=O)CC1 [Compound 6]
> 2 | 0.062 | Cc1ccc(N2C(=O)c3ccc(C(=O)NCC(O)CN4CCN(c5ccccc5OC(C)C)CC4)cc3C2=O)cc1 (centres unmarked) [Compound 52]

IC50 [1] [µM] | IC50 [2] [µM] | SMILES
> 2 | 0.137 | CC(C)Oc1ccccc1N1CCN(CC(O)CNC(=O)c2ccc3c(c2)C(=O)N(c2ccc(O)cc2)C3=O)CC1 (single isomer, unassigned) [Compound 35]
0.886 | 0.038 | CC(C)Oc1ccccc1N1CCN(CC(O)CNC(=O)c2ccc3c(c2)C(=O)N(c2cc(F)cc(F)c2)C3=O)CC1 (centres unmarked) [Compound 29]
0.606 | 0.055 | CC(C)Oc1ccccc1N1CCN(CC(O)CNC(=O)c2ccc3c(c2)C(=O)N(c2ccc(Cl)cc2)C3=O)CC1 (centres unmarked) [Compound 53]
> 2 | 0.54 | COc1ccccc1N1CCN(CC(O)CNC(=O)c2ccc3c(c2)C(=O)N(c2cccc(F)c2)C3=O)CC1 (centres unmarked) [Compound 43]
0.361 | 0.016 | COc1ccc(N2C(=O)c3ccc(C(=O)NCCCN4CCN(c5ccccc5OC(C)C)CC4)cc3C2=O)cc1 [Compound 45]
> 2 | 0.073 | Cc1ccc(N2C(=O)c3ccc(C(=O)NCC(O)CN4CCN(c5ccccc5OC(C)C)CC4)cc3C2=O)cc1C (centres unmarked) [Compound 39]
> 2 | 0.063 | CC(C)Oc1ccccc1N1CCN(C[C@H](O)CNC(=O)c2ccc3c(c2)C(=O)N(c2cccc(F)c2)C3=O)CC1 [Compound 27]
> 2 | 0.407 | COC(CNC(=O)c1ccc2c(c1)C(=O)N(c1cccc(F)c1)C2=O)CN1CCN(c2ccccc2OC(C)C)CC1 (centres unmarked) [Compound 14]
1.83 | 0.076 | CC(C)Oc1ccccc1N1CCN(CC(O)CNC(=O)c2ccc3c(c2)C(=O)N(c2cccc(F)c2)C3=O)CC1 (racemic) [Compound 4]
> 2 | 0.073 | Cc1cccc(N2C(=O)c3ccc(C(=O)NCC(O)CN4CCN(c5ccccc5OC(C)C)CC4)cc3C2=O)c1 (centres unmarked) [Compound 49]
> 2 | 0.075 | CC(C)Oc1ccccc1N1CCN(CC(O)CNC(=O)c2ccc3c(c2)C(=O)N(c2ccc(C(C)(C)C)cc2)C3=O)CC1 (centres unmarked) [Compound 41]
> 2 | 0.136 | CCOc1ccccc1N1CCN(CC(O)CNC(=O)c2ccc3c(c2)C(=O)N(c2cccc(F)c2)C3=O)CC1 (centres unmarked) [Compound 42]
0.669 | 0.037 | CC(C)Oc1ccccc1N1CCN(CC(O)CNC(=O)c2ccc3c(c2)C(=O)N(c2cccc(Cl)c2)C3=O)CC1 (centres unmarked) [Compound 54]
1.23 | 0.04 | CC(C)Oc1ccccc1N1CCN(CC(O)CNC(=O)c2ccc3c(c2)C(=O)N(c2ccc(Cl)c(Cl)c2)C3=O)CC1 (centres unmarked) [Compound 56]
1.64 | 0.074 | COc1ccccc1N1C(=O)c2ccc(C(=O)NCC(O)CN3CCN(c4ccccc4OC(C)C)CC3)cc2C1=O (centres unmarked) [Compound 26]
